These results are taken from ChEMBL document CHEMBL4699598, “Discovery of Novel Substituted N-(4-Amino-2-chlorophenyl)-5-chloro-2-hydroxybenzamide Analogues as Potent Human Adenovirus Inhibitors” (J Med Chem, 2020).

pIC50: −log10 of the molar value. Active and inactive are the calls of the source. The calls are words filed in the database; no cut-off is given here.

For data set [1], the system named is Human adenovirus 5. The data set is described as follows: Antiviral activity against wild-type Human adenovirus 5 infected in human A549 cells assessed as inhibition of viral DNA replication by measuring number of viral DNA copies at 12 uM after 24 hrs by RT-qPCR analysis (reference value: 100 +/- 0.16 %). Format: functional. The arrangement: scale not given: the % may be the effect or the level left. For orientation: Real-time PCR tracks product formation cycle by cycle.

The nature of data set [2]: Cytotoxicity against human A549 cells assessed as reduction in cell viability incubated for 48 hrs by alamarBlue assay. The class given is cell-based. (In general: Alamar Blue is a resazurin reagent that responds to reducing activity.)
Data set [3] deals with Human adenovirus 5. In words: Antiviral activity against wild-type Human adenovirus 5 infected in human A549 cells assessed as inhibition of viral entry by measuring nuclear associated viral genome level at 10 fold IC50 incubated for 45 mins by RT-PCR analysis (reference value: 100 +/- 1.07 %). Format: functional. The arrangement: scale not given: the % may be the effect or the level left. The note with it: 0.75 h.

In data set [4] the test system is Human adenovirus 5. The data set is described as follows: Antiviral activity against Human adenovirus 5 infected in 293beta5 cells assessed as inhibition of virus infection at 10 fold of IC50 measured at 0 min by GFP reporter gene assay relative to control. The class given is functional, HEK293. (In general: A reporter such as luciferase makes a cellular process visible.)

Data set [5] deals with Human betaherpesvirus 5. The data set is described as follows: Antiviral activity against human cytomegalovirus infected in HFF cells assessed as inhibition of viral replication by measuring number of viral DNA copies at 12 uM incubated for 72 hrs by RT-PCR analysis (reference value: 100 +/- 25.56 %). The class given is functional. The arrangement: scale not given: the % may be the effect or the level left.

Data set [6] concerns Human adenovirus 5. The data set is described as follows: Antiviral activity against GFP-fused Human adenovirus 5 infected in 293beta5 cells assessed as inhibition of plaque formation incubated for 7 days by GFP reporter gene assay. The note with it: Human mastadenovirus C, HEK293, 168 h. Format: functional, organism-based.
Data set [7] can be described thus: Selectivity index, ratio of CC50 for cytotoxicity against human A549 cells assessed as reduction in cell viability incubated for 48 hrs by alamarBlue assay to IC50 for antiviral activity against Human adenovirus 5 infected in 293beta5 cells assessed as inhibition of plaque formation incubated for 7 days by GFP reporter gene assay. Format: toxicity, cell-based. The note with it: read-out: Ratio CC50/IC50.

The subject of data set [8] is Human adenovirus 5. In words: Antiviral activity against wild-type Human adenovirus 5 infected in human A549 cells assessed as inhibition of virus entry incubated for 48 hrs by fluorescence assay. Format: functional, organism-based. The note with it: Human mastadenovirus C, A549, 48 h.
Data set [9] concerns Human adenovirus 5. The data set is described as follows: Antiviral activity against WT-Human adenovirus 5 infected in A549 cells assessed as fold reduction in virus yield at 10 fold of IC50 after 48 hrs endpoint dilution method. The class given is functional.
The subject of data set [10] is Human adenovirus 5. In words: Antiviral activity against wild-type Human adenovirus 5 infected in human A549 cells assessed as inhibition of viral DNA replication by measuring number of viral DNA copies at 9.3 uM after 24 hrs by RT-qPCR analysis (reference value: 100 +/- 0.16 %). Format: functional. The arrangement: scale not given: the % may be the effect or the level left.

For data set [11], the system named is Cytomegalovirus. The data set is described as follows: Antiviral activity against human cytomegalovirus infected in HFF cells assessed as decrease in number of viral DNA copies at 9.3 uM incubated for 72 hrs by RT-PCR analysis (reference value: 100 +/- 25.56 %). The arrangement: scale not given: the % may be the effect or the level left. The class given is functional.

In data set [12] the test system is Human adenovirus 5. The data set is described as follows: Antiviral activity against Human adenovirus 5 infected in 293beta5 cells assessed as inhibition of virus infection at 10 times IC50 measured after 10 to 20 mins by GFP reporter gene assay relative to control. The class given is functional, organism-based. The note with it: HEK293, time min 10-20.

As to `CC(CCO)Nc1ccc(NC(=O)c2cc(Cl)ccc2O)c(Cl)c1` (stereo not drawn), the Activity in [1] worked out at 80.94%; in data set [3] it was 98.96%; in [5], 22.47%. Also, the CC50 at 48 h in data set [2] came out at 200 µM. For the same compound, the “inhibition (INH)” value in data set [4] is on record as under 50%. Moreover, the pIC50 in data set [6] was 5.92; in data set [8] it was 4.51. For the same compound, the selectivity ratio at 48 h in data set [7] amounted to 167. The “fold change (FC)” value in [9] is 9.3.

`CC(C)(C)OC(=O)N1CCC(CNc2ccc(NC(=O)c3cc(Cl)ccc3O)c(Cl)c2)CC1`: the CC50 at 48 h in [2] worked out at 92 µM. Besides, the Activity came to 59.54% in data set [3], 2.49% in data set [10] and 15.58% in data set [11]. Further, the pIC50 in [6] is 6.03; in data set [8], over 5.50. Also, in [7], the selectivity ratio at 48 h was 102. Besides, the “fold change (FC)” value in data set [9] came out at 232. In addition, the inhibition result in data set [12] was “inactive”.

By CC50 is commonly meant the concentration at which the toxic effect on the cells reaches its halfway point. In general, pIC50 refers to −log10 of the IC50, conventionally taken in molar units.
